Reference: paper PMC11160566 (ACS infectious diseases, 2024)

Key:
GES-5 carbapenemase [1] = biological target: T1, GES-5 carbapenemase (Klebsiella pneumoniae, UniProt Q09HD0); test: X-ray crystal structure of acyl-enzyme; type: binding
GES-5 carbapenemase [2] = biological target: T1, GES-5 carbapenemase; test: reporter substrate hydrolysis, absorbance at […] nm; type: biochemical

T1 sequence (Q09HD0 19-287): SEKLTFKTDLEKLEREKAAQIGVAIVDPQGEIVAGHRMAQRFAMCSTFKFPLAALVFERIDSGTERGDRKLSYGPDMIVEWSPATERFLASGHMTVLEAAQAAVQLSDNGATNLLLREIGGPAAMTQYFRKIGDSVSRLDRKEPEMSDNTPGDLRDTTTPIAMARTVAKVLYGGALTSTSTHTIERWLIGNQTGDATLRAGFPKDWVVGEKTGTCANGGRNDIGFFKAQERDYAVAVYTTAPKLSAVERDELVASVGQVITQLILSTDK

SMILES | X-ray crystal structure of acyl-enzyme (1.62 Å) (GES-5 carbapenemase [1]) | reporter substrate hydrolysis, absorbance at 500 nm (GES-5 carbapenemase [2])
C[C@@H](O)[C@H]1C(=O)N2C(C(=O)O)=C(S[C@@H]3CN[C@H](C(=O)N(C)C)C3)[C@H](C)[C@H]12 [MEM, meropenem] | The 3D structures of the acyl-enzyme complexes of GES-5-meropenem and GES-5-NA-1-157 were determined by X-ray crystallography | 
O=C(Cc1cccs1)N[C@@H]1C(=O)N2C(C(=O)O)=C(/C=C/c3ccc([N+](=O)[O-])cc3[N+](=O)[O-])CS[C@H]12 [nitrocefin] |  | The progress curves for nitrocefin hydrolysis by GES-5 in the presence of NA-1-157
